Where two headings read alike, the source gives them in different places.
System: recombinant NL-Rluc virus
Assay: Inhibition of HIV replication (NL-Rluc virus, luciferase readout in MT-2 cells)
Assay type: cell-based
Conditions: Human immunodeficiency virus 1, MT2, 120 h

With Cc1nc2cc(NC(=O)OCc3ccccc3)nn2c(-c2cc(F)c3c(c2C)CCCO3)c1[C@H](OC(C)(C)C)C(=O)O [Example 33, (2S)-2-(2-(((benzyloxy)carbonyl)amino)-7-(8-fluoro-5-methylchroman-6-yl)-5-methylpyrazolo[1,5-a]pyrimidin-6-yl)-2-(tert-butoxy)acetic acid] the EC50 was 60 nM and the EC50 (read-out: Activity) was < 100 nM.
COc1ccc(C(=O)Nc2cc3nc(C)c([C@H](OC(C)(C)C)C(=O)O)c(-c4cc(F)c5c(c4C)CCCO5)n3n2)cc1OC [Example 15, (2S)-2-tert-butoxy-2-(2-(3,4-dimethoxybenzamido)-7-(8-fluoro-5-methylchroman-6-yl)-5-methylpyrazolo[1,5-a]pyrimidin-6-yl)acetic acid] gave an EC50 of 260 nM and an EC50 (read-out: Activity) of 100 to 1000 nM.
With Cc1nc2cc(NCc3ccccc3)nn2c(-c2cc(F)c3c(c2C)CCCO3)c1[C@H](OC(C)(C)C)C(=O)O [Example 38, (2S)-2-(2-(benzylamino)-7-(8-fluoro-5-methylchroman-6-yl)-5-methylpyrazolo[1,5-a]pyrimidin-6-yl)-2-(tert-butoxy)acetic acid] the EC50 was 300 nM and the EC50 (read-out: Activity) was 100 to 1000 nM.
Compound Cc1nc2cc(N3CCCC3)nn2c(-c2cc(F)c3c(c2C)CCCO3)c1[C@H](OC(C)(C)C)C(=O)O [Example 51, (2S)-2-(tert-butoxy)-2-(7-(8-fluoro-5-methylchroman-6-yl)-5-methyl-2-(pyrrolidin-1-yl)pyrazolo[1,5-a]pyrimidin-6-yl)acetic acid] has an EC50 (read-out: Activity) of 100 to 1000 nM.
In the case of Cc1ccc(CCNc2cc3nc(C)c([C@H](OC(C)(C)C)C(=O)O)c(-c4cc(F)c5c(c4C)CCCO5)n3n2)cc1 [Example 40, (2S)-2-(tert-butoxy)-2-(7-(8-fluoro-5-methylchroman-6-yl)-5-methyl-2-((4-methylphenethyl)amino)pyrazolo[1,5-a]pyrimidin-6-yl)acetic acid], the EC50 (read-out: Activity) is reported as < 100 nM.
With Cc1nc2cc(NCCc3ccccc3)nn2c(-c2cc(F)c3c(c2C)CCCO3)c1[C@H](OC(C)(C)C)C(=O)O [Example 39, (2S)-2-(tert-butoxy)-2-(7-(8-fluoro-5-methylchroman-6-yl)-5-methyl-2-(phenethylamino)pyrazolo[1,5-a]pyrimidin-6-yl)acetic acid] the EC50 (read-out: Activity) was < 100 nM.
In the case of Cc1nc2cc(NC(=O)C(Oc3ccccc3)C(C)C)nn2c(-c2cc(F)c3c(c2C)CCCO3)c1[C@H](OC(C)(C)C)C(=O)O (mixture of isomers) [Example 24, (2S)-2-tert-butoxy-2-(7-(8-fluoro-5-methylchroman-6-yl)-5-methyl-2-(3-methyl-2-phenoxybutanamido)pyrazolo[1,5-a]pyrimidin-6-yl)acetic acid], the EC50 (read-out: Activity) is reported as < 100 nM.
For Cc1nc2cc(NC(=O)COCc3ccccc3)nn2c(-c2cc(F)c3c(c2C)CCCO3)c1[C@H](OC(C)(C)C)C(=O)O [Example 9, (2S)-2-(2-(2-(benzyloxy)acetamido)-7-(8-fluoro-5-methylchroman-6-yl)-5-methylpyrazolo[1,5-a]pyrimidin-6-yl)-2-tert-butoxyacetic acid], the EC50 (read-out: Activity) was < 100 nM.
Cc1nc2cc(NC(=O)Cc3ccc(F)cc3)nn2c(-c2cc(F)c3c(c2C)CCCO3)c1[C@H](OC(C)(C)C)C(=O)O [Example 3, (2S)-2-tert-butoxy-2-(7-(8-fluoro-5-methylchroman-6-yl)-2-(2-(4-fluorophenyl)acetamido)-5-methylpyrazolo[1,5-a]pyrimidin-6-yl)acetic acid] was tested, and the EC50 was 80 nM and the EC50 (read-out: Activity) was < 100 nM.
For Cc1nc2cc(NC(=O)OCC(C)(C)C)nn2c(-c2cc(F)c3c(c2C)CCCO3)c1[C@H](OC(C)(C)C)C(=O)O [Example 35, (2S)-2-(tert-butoxy)-2-(7-(8-fluoro-5-methylchroman-6-yl)-5-methyl-2-(((neopentyloxy)carbonyl)amino)pyrazolo[1,5-a]pyrimidin-6-yl)acetic acid], the EC50 (read-out: Activity) was < 100 nM.
With Cc1ccc(NC(=O)Nc2cc3nc(C)c([C@H](OC(C)(C)C)C(=O)O)c(-c4cc(F)c5c(c4C)CCCO5)n3n2)cc1 [Example 37, (2S)-2-(tert-butoxy)-2-(7-(8-fluoro-5-methylchroman-6-yl)-5-methyl-2-(3-(p-tolyl)ureido)pyrazolo[1,5-a]pyrimidin-6-yl)acetic acid] the EC50 (read-out: Activity) was < 100 nM.
Cc1nc2cc(NCCC(F)(F)F)nn2c(-c2cc(F)c3c(c2C)CCCO3)c1[C@H](OC(C)(C)C)C(=O)O [Example 48, (2S)-2-(tert-butoxy)-2-(7-(8-fluoro-5-methylchroman-6-yl)-5-methyl-2-((3,3,3-trifluoropropyl)amino)pyrazolo[1,5-a]pyrimidin-6-yl)acetic acid] showed an EC50 of 340 nM and an EC50 (read-out: Activity) of 100 to 1000 nM.
For COc1cc(C(=O)Nc2cc3nc(C)c([C@H](OC(C)(C)C)C(=O)O)c(-c4cc(F)c5c(c4C)CCCO5)n3n2)cc(OC)c1OC [Example 29, (2S)-2-tert-butoxy-2-(7-(8-fluoro-5-methylchroman-6-yl)-5-methyl-2-(3,4,5-trimethoxybenzamido)pyrazolo[1,5-a]pyrimidin-6-yl)acetic acid], the EC50 (read-out: Activity) was 100 to 1000 nM.
With Cc1nc2cc(NC(=O)Cc3ccccc3)nn2c(-c2cc(F)c3c(c2C)CCCO3)c1[C@H](OC(C)(C)C)C(=O)O [Example 4, (2S)-2-tert-butoxy-2-(7-(8-fluoro-5-methylchroman-6-yl)-5-methyl-2-(2-phenylacetamido)pyrazolo[1,5-a]pyrimidin-6-yl)acetic acid] the EC50 was 120 nM and the EC50 (read-out: Activity) was 100 to 1000 nM.
For Cc1nc2cc(NCCC(C)(C)C)nn2c(-c2cc(F)c3c(c2C)CCCO3)c1[C@H](OC(C)(C)C)C(=O)O [Example 45, (2S)-2-(tert-butoxy)-2-(2-((3,3-dimethylbutyl)amino)-7-(8-fluoro-5-methylchroman-6-yl)-5-methylpyrazolo[1,5-a]pyrimidin-6-yl)acetic acid], the EC50 (read-out: Activity) was < 100 nM.
Cc1nc2cc(NC(=O)c3cccc(OCc4ccccc4)c3)nn2c(-c2cc(F)c3c(c2C)CCCO3)c1[C@H](OC(C)(C)C)C(=O)O [Example 7, (2S)-2-(2-(3-(benzyloxy)benzamido)-7-(8-fluoro-5-methylchroman-6-yl)-5-methylpyrazolo[1,5-a]pyrimidin-6-yl)-2-tert-butoxyacetic acid] was tested, and the EC50 (read-out: Activity) was < 100 nM.
Work on Cc1nc2cc(NC3CCCC3)nn2c(-c2cc(F)c3c(c2C)CCCO3)c1[C@H](OC(C)(C)C)C(=O)O [Example 49, (2S)-2-(tert-butoxy)-2-(2-(cyclopentylamino)-7-(8-fluoro-5-methylchroman-6-yl)-5-methylpyrazolo[1,5-a]pyrimidin-6-yl)acetic acid] yielded an EC50 (read-out: Activity) of 100 to 1000 nM.
Cc1nc2cc(NCCC(C)CC(C)(C)C)nn2c(-c2cc(F)c3c(c2C)CCCO3)c1[C@H](OC(C)(C)C)C(=O)O (stereo partly drawn) [Example 47, (2S)-2-(tert-butoxy)-2-(7-(8-fluoro-5-methylchroman-6-yl)-5-methyl-2-((3,5,5-trimethylhexyl)amino)pyrazolo[1,5-a]pyrimidin-6-yl)acetic acid] was tested, and the EC50 (read-out: Activity) was < 100 nM.
In the case of Cc1nc2cc(NC(=O)CCCCCC(C)(C)C)nn2c(-c2cc(F)c3c(c2C)CCCO3)c1[C@H](OC(C)(C)C)C(=O)O [Example 20, (2S)-2-tert-butoxy-2-(2-(7,7-dimethyloctanamido)-7-(8-fluoro-5-methylchroman-6-yl)-5-methylpyrazolo[1,5-a]pyrimidin-6-yl)acetic acid], the EC50 (read-out: Activity) is reported as < 100 nM.
Cc1nc2cc(NCCCc3ccccc3)nn2c(-c2cc(F)c3c(c2C)CCCO3)c1[C@H](OC(C)(C)C)C(=O)O [Example 41, (2S)-2-(tert-butoxy)-2-(7-(8-fluoro-5-methylchroman-6-yl)-5-methyl-2-((3-phenylpropyl)amino)pyrazolo[1,5-a]pyrimidin-6-yl)acetic acid] was tested, and the EC50 was 50 nM and the EC50 (read-out: Activity) was < 100 nM.
With CCCCOC(=O)Nc1cc2nc(C)c([C@H](OC(C)(C)C)C(=O)O)c(-c3cc(F)c4c(c3C)CCCO4)n2n1 [Example 34, (2S)-2-(tert-butoxy)-2-(2-((butoxycarbonyl)amino)-7-(8-fluoro-5-methylchroman-6-yl)-5-methylpyrazolo[1,5-a]pyrimidin-6-yl)acetic acid] the EC50 (read-out: Activity) was < 100 nM.
With Cc1nc2cc(NC(=O)C(=O)c3c[nH]c4ccccc34)nn2c(-c2cc(F)c3c(c2C)CCCO3)c1[C@H](OC(C)(C)C)C(=O)O [Example 31, (2S)-2-(2-(2-(1H-indol-3-yl)-2-oxoacetamido)-7-(8-fluoro-5-methylchroman-6-yl)-5-methylpyrazolo[1,5-a]pyrimidin-6-yl)-2-tert-butoxyacetic acid] the EC50 (read-out: Activity) was < 100 nM.
For Cc1nc2cc(NC(=O)OCC[Si](C)(C)C)nn2c(-c2cc(F)c3c(c2C)CCCO3)c1[C@H](OC(C)(C)C)C(=O)O [Example 36, (2S)-2-(tert-butoxy)-2-(7-(8-fluoro-5-methylchroman-6-yl)-5-methyl-2-(((2-(trimethylsilyl)ethoxy)carbonyl)amino)pyrazolo[1,5-a]pyrimidin-6-yl)acetic acid], the EC50 (read-out: Activity) was < 100 nM.
Compound COc1ccc(CCC(=O)Nc2cc3nc(C)c([C@H](OC(C)(C)C)C(=O)O)c(-c4cc(F)c5c(c4C)CCCO5)n3n2)cc1 [Example 23, (2S)-2-tert-butoxy-2-(7-(8-fluoro-5-methylchroman-6-yl)-2-(3-(4-methoxyphenyl)propanamido)-5-methylpyrazolo[1,5-a]pyrimidin-6-yl)acetic acid] has an EC50 of 170 nM and an EC50 (read-out: Activity) of 100 to 1000 nM.

Reference: patent US9006235B2, “Inhibitors of human immunodeficiency virus replication” (priority 2012, dated 2015)
